Data reported in PubChem BioAssay AID2060902 (Molecular Pharmacology Branch, DTP, NCI, 2025).

System: 485368-065-R3-J5-PDC spheroids with HUVEC/MSC, viability
Assay: Anticancer human tumor 485368-065-R3-J5-PDC patient-derived pancreatic carcinoma cell line growth inhibition [RAS]
Conditions: for IC50: curve of first compound; for viability, T/C: stronger effect = lower value
Procedure, shortened: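 Tumour cells grown as complex spheroids with HUVEC endothelial cells and mesenchymal stem cells, treated with RAS pathway inhibitor combinations. Each agent spans half-log steps from near clinical Cmax, or 10 microM where Cmax is unknown.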
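Note: spheroids exposed to agents for seven days before readout.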

Question: CC(C)NCC(C(=O)N1CCN(c2ncnc3c2C(C)CC3O)CC1)c1ccc(Cl)cc1 (configuration not stated) + C=CC(=O)N1CCN(c2nc(OCC3CCCN3C)nc3c(F)c(-c4nc(N)cc(C)c4C(F)(F)F)c(Cl)cc23)C(C)C1 was tested. Which IC50 (second compound 0.00316 µM) did it give?
Answer: > 10 µM

Question: And the IC50 (second compound 0.01 µM)?
Answer: > 10 µM

Question: What about the IC50 (second compound 0.0316 µM) of the same molecule?
Answer: > 10 µM

Question: What about the IC50 (second compound 0.1 µM) of the same molecule?
Answer: > 10 µM

Question: What about the IC50 (second compound 0.316 µM) of the same molecule?
Answer: > 10 µM

Question: What about the IC50 (second compound 1 µM) of the same molecule?
Answer: 9.61 µM

Question: What about the viability, T/C (second compound 0.00316 µM, first compound 0.0316 µM) of the same molecule?
Answer: 101%

Question: What about the viability, T/C (second compound 0.00316 µM, first compound 0.1 µM) of the same molecule?
Answer: 93.7%

Question: What about the viability, T/C (second compound 0.00316 µM, first compound 0.316 µM) of the same molecule?
Answer: 94.7%

Question: What about the viability, T/C (second compound 0.00316 µM, first compound 1 µM) of the same molecule?
Answer: 82.9%

Question: What about the viability, T/C (second compound 0.00316 µM, first compound 3.16 µM) of the same molecule?
Answer: 70.8%

Question: What about the viability, T/C (second compound 0.00316 µM, first compound 10 µM) of the same molecule?
Answer: 61.6%

Question: What about the viability, T/C (second compound 0.01 µM, first compound 0.0316 µM) of the same molecule?
Answer: 109%

Question: And the viability, T/C (second compound 0.01 µM, first compound 0.1 µM)?
Answer: 101%

Question: And the viability, T/C (second compound 0.01 µM, first compound 0.316 µM)?
Answer: 91.4%

Question: What about the viability, T/C (second compound 0.01 µM, first compound 1 µM) of the same molecule?
Answer: 75.8%

Question: And the viability, T/C (second compound 0.01 µM, first compound 3.16 µM)?
Answer: 72.9%

Question: And the viability, T/C (second compound 0.01 µM, first compound 10 µM)?
Answer: 53.5%

Question: What about the viability, T/C (second compound 0.0316 µM, first compound 0.0316 µM) of the same molecule?
Answer: 102%

Question: And the viability, T/C (second compound 0.0316 µM, first compound 0.1 µM)?
Answer: 124%

Question: What about the viability, T/C (second compound 0.0316 µM, first compound 0.316 µM) of the same molecule?
Answer: 93.3%

Question: And the viability, T/C (second compound 0.0316 µM, first compound 1 µM)?
Answer: 88.2%

Question: And the viability, T/C (second compound 0.0316 µM, first compound 3.16 µM)?
Answer: 68.6%

Question: What about the viability, T/C (second compound 0.0316 µM, first compound 10 µM) of the same molecule?
Answer: 57%

Question: What about the viability, T/C (second compound 0.1 µM, first compound 0.0316 µM) of the same molecule?
Answer: 102%

Question: And the viability, T/C (second compound 0.1 µM, first compound 0.1 µM)?
Answer: 105%

Question: And the viability, T/C (second compound 0.1 µM, first compound 0.316 µM)?
Answer: 93.1%

Question: What about the viability, T/C (second compound 0.1 µM, first compound 1 µM) of the same molecule?
Answer: 78.9%

Question: What about the viability, T/C (second compound 0.1 µM, first compound 3.16 µM) of the same molecule?
Answer: 70.5%

Question: What about the viability, T/C (second compound 0.1 µM, first compound 10 µM) of the same molecule?
Answer: 57.8%

Question: And the viability, T/C (second compound 0.316 µM, first compound 0.0316 µM)?
Answer: 100%

Question: What about the viability, T/C (second compound 0.316 µM, first compound 0.1 µM) of the same molecule?
Answer: 105%

Question: And the viability, T/C (second compound 0.316 µM, first compound 0.316 µM)?
Answer: 97.3%

Question: What about the viability, T/C (second compound 0.316 µM, first compound 1 µM) of the same molecule?
Answer: 78.3%

Question: And the viability, T/C (second compound 0.316 µM, first compound 3.16 µM)?
Answer: 71.8%

Question: And the viability, T/C (second compound 0.316 µM, first compound 10 µM)?
Answer: 52.9%

Question: And the viability, T/C (second compound 1 µM, first compound 0.0316 µM)?
Answer: 101%

Question: And the viability, T/C (second compound 1 µM, first compound 0.1 µM)?
Answer: 90.6%

Question: And the viability, T/C (second compound 1 µM, first compound 0.316 µM)?
Answer: 102%

Question: And the viability, T/C (second compound 1 µM, first compound 1 µM)?
Answer: 84.6%

Question: What about the viability, T/C (second compound 1 µM, first compound 3.16 µM) of the same molecule?
Answer: 68%

Question: What about the viability, T/C (second compound 1 µM, first compound 10 µM) of the same molecule?
Answer: 49.1%
